Measurements published in article PMC6433934, “Preclinical Evaluation of Bispecific Adaptor Molecule Controlled Folate Receptor CAR-T Cell Therapy With Special Focus on Pediatric Malignancies” (Frontiers in Oncology, 2019).

Key:
[1] = target: T1, FRβ (Homo sapiens, UniProt P14207); assay: 3H-EC17 cell-based radioligand binding, CHO-β cells; settings: ^3H-EC17, CHO-β cells, 2 h at 37°C, from molecules bound per cell
T1 construct: expressed in transfected cells; host or cells: Chinese hamster ovary cells (CHO-β)
T1 sequence (P14207 17-255): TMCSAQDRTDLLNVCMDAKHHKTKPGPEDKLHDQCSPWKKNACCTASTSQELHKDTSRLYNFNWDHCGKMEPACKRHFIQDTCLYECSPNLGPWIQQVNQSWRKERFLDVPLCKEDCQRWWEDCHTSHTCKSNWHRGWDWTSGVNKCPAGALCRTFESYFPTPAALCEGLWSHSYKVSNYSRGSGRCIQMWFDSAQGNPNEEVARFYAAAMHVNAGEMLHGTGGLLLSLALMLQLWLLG
Procedure: Unless otherwise noted, all FR+ and FR-negative cancer cell lines were, respectively, maintained in RPMI-1640 medium (Gibco BRL) supplemented with 10% heat-inactivated fetal calf serum without (FFRPMI) or with (RPMI) 2.4 μM folic acid (FA). KB (FRα-expressing human cervical carcinoma with HeLa markers) and CHO-β (Chinese hamster ovary cells transfected with human FRβ) were used as the sources of FRα and FRβ for radioligand binding assays, respectively ([18]). MDA-MB-231 represents a FRα+ subclone of human TNBC cell line. For AML studies, the green fluorescent protein (GFP)-expressing isogenic pairs of FRβ-positive (THP1-FRβ) and FR-negative (THP1-FG12) cell lines were kindly provided by Dr. Manohar Ratnam (The University of Toledo, Toledo, OH). […]
The bispecific affinities of EC17 CAM were assessed using ^3H-EC17 in cell-based radioligand binding assays. […] The whole cell lysates were quantitated for the level of radioactivity and cellular protein content by standard Pierce BCA protein assay. The number of ^3H-EC17 molecules bound per cell was calculated to determine the dissociation constants (Kd) for FRα (KB) and FRβ (CHO-β), respectively. […] Afterwards, the cells were washed 4x with PBS, lysed with 0.1% Triton X-100 plus 0.1 N NaOH and counted in a scintillation counter. […]

[2] = test system: MDA-MB-231 tumors; assay: EC17 dose finding safety study, tumor-bearing mice; assay type: in vivo, NSG mice; settings: for higher IFNγ production in mouse plasma vs CAR-T cells only: all EC17 regimens
Procedure: All animal care and use were performed according to NIH guidelines and in compliance with protocols approved by the Purdue University Animal Use and Care Committee. Female 4 to 5-weeks-old NOD/SCID gamma (NSG™) mice (stock number: 005557) were purchased from The Jackson Laboratory (Bar Harbor, ME). Unless specifically indicated, all animals were maintained on a FA-deficient diet (TestDiet, St. Louis, MO) upon arrival and throughout the study. To establish subcutaneous xenografts, MDA-MB-231 and HOS-FRα were implanted in the right flank region at 2.5 × 10^6 and 1 × 10^6 cells per animal, respectively. For intravenous xenografts, THP1-FRβ cells were inoculated at 5 × 10^6 cells per animal. Subcutaneous tumors were measured 2–3 times per week with a caliper and calculated using the ellipsoidal formula (length x width^2)/2. […] All animal doses (CAR-T cells, EC17, sodium fluorescein) were given intravenously.
In a therapeutic setting, EC17 CAM can theoretically be given before or after CAR-T cell injection ([33]). For all intended purposes here, we administered the first dose of EC17 2–3.5 days after CAR-T cells to allow for an observation period of human T cells in tumor-bearing mice. Two batches of unsorted E2-CAR-T cells (23% or 39% EGFRt+, 1:1 CD4/CD8) were used for in vivo studies. On the day of infusion for each experiment (day 0), frozen CAR-T cells were quickly thawed at 37°C, washed 2x with Dulbecco's 1X PBS (pH 7.4) and injected into the tail veil at desired EGFRt+ E2-CAR-T cell doses. In addition, a small aliquot of CAR-T cells was analyzed by flow cytometry for CD4 to CD8 ratio and differentiation status of CAR-T cells. On the first day of EC17 dose, tumor-bearing animals were randomly assigned into groups according to their tumor sizes or the same number of days post intravenous implantation (i.e., THP1-FRβ).
For MDA-MB-231 studies, mice received a high dose (~10 million) of a “clinical facsimile” of E2-CAR-T cells (~39% EGFRt+) with a low differentiation profile. Two days later, we started them with 3 different treatment regimens of EC17 at an average tumor size of ~293 ± 39 mm^3. The EC17 dosing was given once-a-week (SIW) at 500 nmol/kg on Mondays, or as escalating doses of 5, 50, or 100, and 500 or 1,000 nmol/kg on Monday, Thursday, and Monday with a 6 day break in-between cycles. Control mice were left untreated (received CAR-T cells but no EC17). For comparison, a cohort of tumor-free littermates also received the same number of CAR-T cells without or with EC17 SIW at 500 nmol/kg. To study the effect of high dietary folate, two sets of NSG mice were placed on either a FA-replete diet (4 mg/kg, Envigo, Indianapolis, IN) or a FA-deficient diet (TestDiet, St. Louis, MO) upon arrival. On day 0, both sets of the mice received ~10 million of the same “clinical facsimile” CAR-T cells followed by no EC17 or EC17 SIW at 500 nmol/kg starting on day 3. On the first day of EC17 administration, MDA-MB-231 tumors size averaged around ~549 ± 184 mm^3 (280–918 mm^3) in FA-replete mice, and ~559 ± 165 mm^3 (356–961 mm^3) in FA-deficient mice.
Depending on the CAR-T cell dose and how EC17 is administered, tumor-bearing mice receiving FITC-specific CAR-T cells can experience severe CRS and varying degrees of body weight loss ([27], [33], [34]). […] On the days immediately following each EC17 dose, animals were scored and rescue agents such as sodium fluorescein, folic acid and leucovorin were used to mitigate CRS toxicity ([33]). […]

With Nc1nc2ncc(CNc3ccc(C(=O)NC(CCC(=O)NCCNC(=S)Nc4ccc(-c5c6ccc(=O)cc-6oc6cc(O)ccc56)c(C(=O)O)c4)C(=O)O)cc3)nc2c(=O)[nH]1 (stereo not drawn) [EC17, FA-(γ)-ethylenediamine-FITC] the Kd [1] was 0.8 nM, the cures ([2]; EC17-treated cohorts (SIW 500, 5/50/500, 5/100/1000 nmol/kg), ~10 million E2-CAR-T cells) was 100% and the “higher IFNγ production in mouse plasma vs CAR-T cells only” value ([2]; day 11, ~20 h after previous EC17 dose, ~10 million E2-CAR-T cells) was ~ 30 x. The “higher IFNγ production in mouse plasma vs CAR-T cells only” value ([2]; day 12, ~42 h after previous EC17 dose, ~10 million E2-CAR-T cells) was ~ 10 x, the “persistence of CAR-T cells in mouse blood” value ([2]; tumor-bearing animals, ~10 million E2-CAR-T cells plus EC17, last measurement) was “up to 54 days” and the CRS grade ([2]; tumor-bearing, ~10 million E2-CAR-T cells, continued EC17 dosing independent of the regimen, 0–5 scale) was 2-3.
